Here are results for two molecules from patent US20250002854A1, “METHODS OF GENERATING POPULATIONS OF TUMOUR-INFILTRATING T CELLS” (LYTIX BIOPHARMA AS, priority 2016, published 2025).

Square brackets hold non-standard residues; d marks the D form. Ends that are not written are not given here. Dip = N[C@H](C(=O)O)C(c1ccccc1)c1ccccc1

For experiment [1] the following is noted: previous studies by Ausbaucher et al.; cited from earlier work.
Experiment [2] has as its system B16F1 cells. As to the kind of experiment: In vitro cytotoxicity, MTT assay (IC50 4h). It counts as cell-based, murine. The conditions noted are these: B16F1, 4 h. The text has this:
JM1, a rat hepatocellular carcinoma, HEPG2 and BEL7402, both human hepatocellular carcinomas, were kindly provided by Dr. Pål-Dag Line, Director, Department of Transplantation Medicine, Oslo University Hospital. B16F1 (ATCC, CRL-6323), a murine skin malignant melanoma, MDA-MB-435S (HTB-129), a human malignant melanoma originating from a breast metastases, Malme-3M (HTB-64), a human malignant melanoma derived from a lung metastases, MRC-5 (ATCC, CCL-171), normal human lung fibroblasts, SK-N-AS (ATCC, CRL-2137), a human neuroblastoma cell line derived from a bone marrow metastases, HT-29 (ATCC, HTB-38), a human colorectal adenocarcinoma and HUV-EC-C (ATCC, CRL-1730), a human vascular endothelium cell line, were all purchased from the American Type Culture Collection (ATCC-LGC Standards, Rockville, MD, USA). HaCat, a human keratinocyte cell line, was kindly provided by Dr. Ingvild Pettersen, Department of Host Microbe Interactions, University of Tromsø. A375, a malignant melanoma cell line of human origin, was purchased from Public Health England (PHE Culture Conditions, Porton, Down, Salisbury, UK). JM1, A375, BEL7402, HEPG2 and B16F1 were all maintained in culture media consisting of DMEM (high glucose), while SK-N-AS, HT-29 and MDA-MB-435S were cultured in an RPMI-1640 medium containing 2 mM L-glutamine and sodium bicarbonate. […]

For experiment [3], the system named is A375 cells. As to the kind of experiment: Fluorescence measurement of reactive oxygen species (DCFDA). It counts as cell-based, human. The conditions noted are these: 15 minutes of incubation, different concentrations. The method, then:
A DCFDA cellular reactive oxygen species detection assay kit was purchased from abcam®, and A375 cells seeded in a 96-well Costar black clear bottom plate with 20,000 cells per well incubated in 37° C. 16 hours prior to DCFDA assay. Cells were washed with a 100 μL/well of pre-warmed PBS one time, and incubated with 20 µM of DCFDA in a buffer solution supplied with the kit at 37° C. in a cell culture incubator for 45 min, and then washed again with a buffer solution of 100 μL/well. […] The fluorescence intensity was determined at an excitation wavelength of 485 nm and an emission wavelength of 530 nm on a FLUOstar Galaxy plate reader.

Experiment [4] has as its system A375 cells. As to the kind of experiment: TEM electron microscopy of A375 cells. It counts as cell-based, human. The procedure:
A375 cells were seeded at 1×10^5 cells per well in 6-well plates and allowed to grow for three days to optimize membrane structures in the culture, and the media was changed on the second day. Cells were washed twice in serum-free RPMI before being treated with LTX-315 dissolved in serum-free RPMI at 5, 10 and 25 μg/ml, with serum-free RPMI as a negative control. Cells were then washed with PBS twice before fixation for 24 hours in 4° C. with 4% formaldehyde and 1% gluteralaldehyde in a Hepes buffer at pH 7.8. Dehydration and post-fixation protocols included incubation in a 5% buffered tannic acid and incubation in a 1% osmium-reduced ferrocyanide. Ultrathin sections were prepared, and uranyl acetate (5%) and Reynolds's lead citrate were used for staining and contrasting. Samples were examined on a JEOL JEM-1010 transmission electron microscope, and images were taken with an Olympus Morada side-mounted TEM CCD camera (Olympus soft imaging solutions, GmbH, Germany).

In experiment [5] the test system is human A547 cells. As to the kind of experiment: TEM of A547 cells, mitochondrial membrane. The format is cell-based. The note with it: 10 μg/ml, 60 minutes.
Experiment [6] concerns rat sarcoma model. As to the kind of experiment: Rat sarcoma model with three lesions, tumour growth by live imaging. The conditions noted are these: LTX-315 injected into one subcutaneous lesion. The format is in vivo.
The subject of experiment [7] is B16F1 cells. As to the kind of experiment: Secondary tumour challenge of animals cured by LTX-315. It counts as in vivo, C57BL/6 mice. The procedure:
Tumour cells were harvested, washed in RPMI-1640 and injected intradermally (i.d.) into the right side of the abdomen in C57BL/6 mice (5×10^4 B16F1 cells per mouse/50 μl RPMI-1640). Palpable tumours (20-30 mm^2) were injected i.t. with single doses of LTX-315 or LTX-328 dissolved in saline (1.0 mg peptide/50 μl saline) once a day for 3 consecutive days, and the vehicle control was saline only (0.9% NaCl in sterile H2O). Tumour size was measured using an electronic caliper and expressed as the area of an ellipse [(maximum dimension/2)×(minimum dimension/2)×π]. Animals were then euthanized when the product of the perpendicular tumour dimensions reached 130 mm^2 or when tumour ulceration developed. […] Animals surviving the i.d. tumour re-challenge were later given a second tumour rechallenge intravenously (i.v.) (2×10^5 cells) through the tail vein. Lungs were harvested on day 19 after the i.v. re-challenge. All mice were monitored for tumour size and survival.

Usually IC50 stands for the concentration needed to halve the response being measured. Higher therefore signals a need for much substance. For `Cl.Cl.NCCNC(=O)C(CN)(CCCc1ccccc1)CCCc1ccccc1` [LTX-401], the “mitochondrial membrane potential (TMRE)” value in experiment [1] is given as “did not compromise the mitochondrial membrane potential”. In experiment [2], this molecule yielded an IC50 of 27 µM.

Take “K-K-W-W-K-K-W-Dip-K-NH2 (KKWWKKW[Dip]K-NH2) [LTX-315]”: the ROS generation entry in experiment [3] was “Significant amounts of ROS were generated”. In addition, in experiment [4] (3.5 μM), the cells with vacuolization result was “approximately 20%”. For the same molecule, in experiment [4] (3.5 μM, 60 minutes), the “number of necrotic cells” value is on record as “less than 5%” and the ultrastructural changes result was “showed vacuolization, as well as some altering of the mitochondrial morphology”. Moreover, in experiment [4] (17 μM, 60 min), the cells displaying vacuolization is given as 4%; the “cells with necrotic morphology and loss of plasma membrane integrity” value was “approximately 40%”. Moreover, the “mode of cell killing” value in experiment [4] (TEM, A375 cells) was “kills the tumor cells with a lytic mode of action”. Besides, in experiment [5], the “effect on mitochondrial membrane” value was “disintegration of the mitochondrial membrane”. The “effect on lesions (intraperitoneal and two subcutaneous tumours)” value in experiment [6] is “eradicated all three lesions”. In experiment [7] (i.d. re-challenge), the “animals with no tumour take” value was 60%. Moreover, in experiment [7] (i.d. re-challenge with B16F1 cells 4-5 weeks after CR), the “animals with tumour growth absent” value is reported as 15 out of the 25. Besides, the “CD3+ T cell infiltration of lung tumour foci” value in experiment [7] (i.v. re-challenge, histology) is on record as “significantly more infiltrated by CD3+ T cells”. Moreover, the “mean # tumour foci (lung)” value in experiment [7] (i.v. re-challenge, n=7) came to 15.86.
